Drawing on ChEMBL document CHEMBL1154809, “Conventional and microwave assisted synthesis of small molecule based biologically active heterocyclic amidine derivatives” (2010), this text covers Activity for 18 molecules.

One assay has as its system Rattus norvegicus. Put plainly: Antiinflammatory activity against carrageenan-induced paw oedema in Charles Foster albino rat at 50 mg/kg, po administered 30 mins before carrageenan challenge measured after 1 to 3 hrs by water plethysmometer. In kind it is functional.
For the next assay, the system named is HCT-15. The experiment in a line: Anticancer activity against human HCT15 cells at 10 uM after 48 hrs by sulforhodamine B assay. In kind it is functional, cell-based. A general note: Sulforhodamine B stains cellular protein and so reports cell mass.
For another assay, the system named is HepG32. Put plainly: Anticancer activity against human […] cells at 10 uM after 48 hrs by sulforhodamine B assay. In kind it is functional, cell-based.
The test system of another assay is A549. Put plainly: Anticancer activity against human A549 cells at 10 uM after 48 hrs by sulforhodamine B assay. The class given is functional, cell-based.
For another assay, the system named is HOP-62. Put plainly: Anticancer activity against human HOP62 cells at 10 uM after 48 hrs by sulforhodamine B assay. The class given is functional, cell-based.
For another assay, the system named is IMR-32. Put plainly: Anticancer activity against human IMR32 cells at 10 uM after 48 hrs by sulforhodamine B assay. In kind it is functional, cell-based.
Another assay concerns DU-145. The experiment in a line: Anticancer activity against human DU145 cells at 10 uM after 48 hrs by sulforhodamine B assay. The class given is functional, cell-based.

Each structure is given as a SMILES string. Activity calls are given as the source filed them. No cut-off for these calls is given here.

In turn, `N/C(=N/Cc1ccccn1)c1cnccn1` yielded an Activity in the assay on Rattus norvegicus of 0%. Also, the result with HCT-15, with HepG32, in the assay with A549, in the assay with HOP-62, in the assay with IMR-32 and with DU-145 was inactive.

`N/C(=N/CCc1c[nH]c2ccccc12)c1cnccn1`: in the assay on Rattus norvegicus, the Activity amounted to 23.9%. The outcome with HCT-15, in the assay with HepG32, in the assay on A549, in the assay on HOP-62, with IMR-32 and in the assay with DU-145 was inactive.

Regarding `N/C(=N/CCc1c[nH]c2ccccc12)c1ccccn1`, the Activity in the assay with Rattus norvegicus amounted to 23.6%. Besides, the result with HCT-15, in the assay with HepG32, in the assay with A549, in the assay with HOP-62, in the assay on IMR-32 and with DU-145 was inactive.

`N/C(=N/CCCn1ccnc1)c1ccncc1`: in the assay on Rattus norvegicus, the Activity is listed as 10%. Further, the result in the assay with HCT-15, with HepG32, with A549, in the assay on HOP-62, with IMR-32 and with DU-145 was inactive.

In the assay on Rattus norvegicus, `N/C(=N/Cc1ccco1)c1cnccn1` had an Activity of 36.6%. The outcome in the assay with HCT-15, in the assay with HepG32, in the assay on A549, with HOP-62, with IMR-32 and with DU-145 was inactive.

In the assay with Rattus norvegicus, `CC(C)Cc1ccc(C(C)C(=O)O)cc1` (stereo unspecified) [IBUPROFEN] yielded an Activity of 39%. Moreover, the outcome in the assay on HCT-15, in the assay on HepG32, in the assay on A549, with HOP-62, in the assay on IMR-32 and with DU-145 was inactive.

In the case of `N/C(=N/CCc1c[nH]cn1)c1ccccn1`, in the assay on Rattus norvegicus, the Activity was found to be 26.8%. For the same molecule, the result with HCT-15, in the assay on HepG32, in the assay on A549, with HOP-62, with IMR-32 and in the assay with DU-145 was inactive.

As to `N/C(=N/CCCn1ccnc1)c1ccccn1`, the Activity in the assay with Rattus norvegicus was 18.8%. Moreover, the result in the assay with HCT-15, with HepG32, in the assay with A549, in the assay on HOP-62, with IMR-32 and in the assay on DU-145 was inactive.

In the assay on Rattus norvegicus, `N/C(=N/CCc1c[nH]c2ccccc12)c1ccncc1` returned an Activity of 28.2%. Also, the result with HCT-15, with HepG32, in the assay on A549, in the assay on HOP-62, in the assay on IMR-32 and in the assay on DU-145 was inactive.

For the molecule `N/C(=N/CCCn1ccnc1)c1cnccn1`, in the assay on Rattus norvegicus, the Activity came to 21.8%. In addition, the result with HCT-15, with HepG32, with A549, in the assay on HOP-62, in the assay with IMR-32 and with DU-145 was inactive.

Regarding `N/C(=N/Cc1ccccn1)c1ccncc1`, the Activity with Rattus norvegicus came to 33.8%. Further, the outcome in the assay with HCT-15, with HepG32, in the assay with A549, in the assay with HOP-62, in the assay with IMR-32 and in the assay with DU-145 was inactive.

In the assay on Rattus norvegicus, `N/C(=N/CCc1c[nH]cn1)c1cnccn1` returned an Activity of 25.4%. Besides, the outcome with HCT-15, with HepG32, in the assay on A549, in the assay with HOP-62, with IMR-32 and with DU-145 was inactive.

In the case of `N/C(=N/CCc1c[nH]cn1)c1ccncc1`, in the assay with Rattus norvegicus, the Activity stood at 22.1%. Also, the result with HCT-15, in the assay on HepG32, in the assay with A549, in the assay on HOP-62, in the assay with IMR-32 and in the assay on DU-145 was inactive.

Consider `N/C(=N/Cc1ccco1)c1ccncc1`, for which, in the assay on Rattus norvegicus, the Activity came to 15.2%. Also, the outcome in the assay on HCT-15, in the assay on HepG32, in the assay with A549, in the assay on HOP-62, in the assay with IMR-32 and in the assay on DU-145 was inactive.

On to `N/C(=N/Cc1ccncc1)c1ccccn1`, for which the Activity in the assay on Rattus norvegicus came out at 28.2%. The outcome with HCT-15, in the assay on HepG32, with A549, in the assay with HOP-62, in the assay with IMR-32 and in the assay with DU-145 was inactive.

Regarding `N/C(=N/Cc1ccncc1)c1ccncc1`, the Activity in the assay on Rattus norvegicus is 31%. Moreover, the result with HCT-15, with HepG32, with A549, in the assay on HOP-62, in the assay on IMR-32 and with DU-145 was inactive.

With `N/C(=N/Cc1ccco1)c1ccccn1`, in the assay with Rattus norvegicus, the Activity turned out to be 28.7%. In addition, the outcome in the assay with HCT-15, in the assay on HepG32, with A549, in the assay with HOP-62, with IMR-32 and with DU-145 was inactive.

As for `N/C(=N/Cc1ccncc1)c1cnccn1`, the Activity in the assay with Rattus norvegicus was found to be 32%. Further, the result in the assay on HCT-15, with HepG32, in the assay on A549, in the assay on HOP-62, in the assay with IMR-32 and in the assay with DU-145 was inactive.
